Structures are written as SMILES.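 The compound was tested at five concentrations on cells cultured in 96-well plates, with a 48-hour exposure period. At the GI50, growth is halved. TGI marks complete inhibition of growth.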

Experimental findings from PubChem BioAssay (NCI) are described below.

Common to all, as to assay: inhibition of tumour cell growth, NCI panel, 48 h
Assay [1] has as its system HS 578T breast.
For assay [2], the system named is BT-549 breast.
The subject of assay [3] is A549 NSCLC.
For assay [4], the system named is RPMI-8226 leukemia.
Assay [5] deals with MDA-MB-435.
Assay [6] relates to HOP-62 NSCLC.
Assay [7] relates to HL-60(TB) leukemia.
Assay [8] relates to SK-MEL-28 melanoma.
The subject of assay [9] is OVCAR-5 ovarian.
Assay [10] relates to EKVX NSCLC.

On to `COc1ccc(/C(C)=C(\c2ccc(Cl)cc2)c2ccc(OCCN3CCCC3)cc2)cc1`, for which the GI50 in [1] is 4.71 µM; in assay [2] it was 3.82 µM; in assay [3] it was 3.97 µM; in assay [4] it was 3.66 µM; in assay [5] it was 1.84 µM; in assay [6] it was 4.68 µM. Besides, the GI50 in [7] was 4.57 µM; in assay [8] it was 3.52 µM; in [9], 4.32 µM; in assay [10], 2.97 µM. The TGI in assay [1] turned out to be 11.8 µM; in [2], 8.09 µM; in [3], 8.43 µM; in [4], 10 µM; in assay [5] it was 6.14 µM; in [6], 9.03 µM. Also, the TGI in assay [7] was found to be 10.9 µM; in assay [8], 7.54 µM; in assay [9], 8.65 µM; in [10], 7.3 µM.
For the molecule `Cn1nc(C(F)(F)F)c(-c2ccc(Cl)c(C(F)(F)F)c2)c1-c1ccc(OCc2ccc(Cl)cc2)cc1O`, the GI50 in [1] was 1.42 µM; in assay [2], 1.54 µM; in [3] it was 1.66 µM; in [4], 1.98 µM; in assay [5], 1.63 µM; in [6], 1.58 µM. The GI50 in assay [7] is 1.4 µM; in [8], 1.88 µM; in [9], 1.83 µM; in assay [10] it was 1.73 µM. In addition, the TGI in [1] was 8.98 µM; in assay [2], 6.51 µM; in assay [3], 6.16 µM; in [4] it was 7.29 µM; in assay [5], 6.27 µM; in [6] it was 6.04 µM. For the same molecule, the TGI in [7] is 3.5 µM; in [8] it was 7.33 µM; in assay [9], 8.26 µM; in [10], 7.73 µM.
Take `O=C1NC(=O)/C(=C/C=C/c2ccccc2)S1`: the GI50 in assay [1] is 13.4 µM; in assay [2], 2.34 µM; in [3] it was 11.1 µM; in assay [4] it was 3.67 µM; in [5] it was 5.46 µM; in [6], 1.37 µM. The GI50 is 1.27 µM in assay [7], 15.5 µM in assay [8], 14.1 µM in assay [9] and 6.1 µM in assay [10]. Moreover, the TGI in [1] was over 100 µM; in [2] it was 58.1 µM; in assay [3] it was over 100 µM; in assay [4], over 96.5 µM; in [5], over 78.7 µM; in assay [6], 33.1 µM. Moreover, the TGI in [7] is 9.58 µM; in assay [8], 36 µM; in [9] it was over 100 µM; in assay [10] it was over 100 µM.
Consider `CC[C@@]1(O)C(=O)NCc2c1cc1n(c2=O)Cc2cc3ccccc3nc2-1`, for which the GI50 was over 100 µM in [1]; 9.04 µM in [2]; 2.37 µM in assay [3]; 2.15 µM in assay [4]; 10.9 µM in [5]; 0.42 µM in assay [6]. Also, the GI50 in assay [7] is 1.33 µM; in assay [8] it was over 53.7 µM; in [9] it was 15.1 µM; in assay [10], over 47.9 µM. For the same molecule, the TGI in [1] is over 100 µM; in [2], over 100 µM; in [3], over 100 µM; in [4], over 43.3 µM; in assay [5], over 100 µM; in [6] it was 4.31 µM. For the same molecule, the TGI in assay [7] is over 24 µM; in [8] it was over 100 µM; in assay [9], over 100 µM; in assay [10] it was over 100 µM.
For `C=C1CCC2C3(C)COC(c4ccc(NC(C)=O)cc4)OC3CCC2(C)C1C/C=C1/C(=O)OCC1O` (stereo not given), the GI50 was over 100 µM in assay [1]; 1.86 µM in [2]; 5.03 µM in assay [3]; 0.985 µM in [4]; 8.8 µM in assay [5]; over 100 µM in assay [6]. Besides, the GI50 is 2.93 µM in assay [7], over 100 µM in assay [8], over 100 µM in assay [9] and 2.71 µM in assay [10]. For the same molecule, the TGI in assay [1] is over 100 µM; in [2], 9.35 µM; in assay [3], over 100 µM; in [4], 8.32 µM; in [5], over 100 µM; in assay [6], over 100 µM. Also, the TGI in assay [7], in assay [8], in assay [9] and in [10] was over 100 µM each time.
As to `COc1ccc(N2CCN(C(=O)c3ccccc3Nc3ccnc(C(F)(F)F)c3)CC2)cc1`, the GI50 is 60.6 µM in [1]; 68.5 µM in [2]; 61.5 µM in [3]; 9.48 µM in assay [4]; 38 µM in assay [5]; 54.8 µM in assay [6]. Further, the GI50 in assay [7] is 32.3 µM; in [8] it was over 100 µM; in [9], over 100 µM; in [10], 39.3 µM. Moreover, the TGI in [1], in [2], in [3], in [4], in assay [5] and in assay [6] was over 100 µM each time. Also, the TGI in assay [7], in [8], in assay [9] and in [10] was over 100 µM in each case.
Take `CC(=O)Oc1ccc(OC(C)=O)c2ccccc12`: the GI50 in assay [1] is 13.2 µM; in [2] it was 13.5 µM; in assay [3], 34.9 µM; in assay [4], 3.85 µM; in [5] it was 3.86 µM; in assay [6] it was 12.6 µM. Also, the GI50 in [7] is 2.72 µM; in assay [8], 13.3 µM; in assay [9], 17.5 µM; in assay [10], 10.4 µM. The TGI in assay [1] was 67.1 µM; in assay [2], 26.6 µM; in [3] it was over 100 µM; in assay [4], 10.2 µM; in [5], 15 µM; in [6] it was 25.3 µM. Besides, the TGI is 7.87 µM in assay [7], 26.5 µM in assay [8], 31.7 µM in assay [9] and 24.7 µM in assay [10].
